From PMC8224742, “Evaluation of 1β-Hydroxylation of Deoxycholic Acid as a Non-Invasive Urinary Biomarker of CYP3A Activity in the Assessment of Inhibition-Based Drug–Drug Interaction in Healthy Volunteers” (Journal of Personalized Medicine, 2021)
Entries after “also recorded” stand apart in the source; their conditions may differ. Read-outs that look alike come from different tables or passages of the source. Marks after values point to notes of the source that are not given here.

Experiments:
[1] = test system: CYP3A; test: Intravenous MDZ (1.0 mg i.v.) plasma pharmacokinetics (MDZ and 1′-OH-MDZ) alone and after repeated inhibitor administration; details: MDZ 1 mg i.v., geometric mean (90% CI)
Experimental: (§1) ITZ tablets (200 mg) were split equally in two, and 100 mg were given to subjects.
(§2) MDZ acted as a nested control in the evaluation of the endogenous urinary markers, and it was administered both orally (1.5 mg) and intravenously (i.v.; 1.0 mg). Participants were all treated the same way for the baseline and randomly split into 3 arms of 8–10 individuals each to evaluate the effect of the inhibitors. […] MDZ pharmacokinetic (PK) profiling and biomarker sampling was also conducted after the washout period and at the end of the study to determine whether enzyme activity returned to baseline levels. The subjects were their control. Treatment, washout and end of study values were compared with values at baseline.
(§3) Plasma concentrations of MDZ and its metabolite 1′-OH-MDZ were analysed using a validated LC-MS/MS method. Plasma samples were extracted using protein precipitation, where 300 µL of acetonitrile (ACN) containing 500 ng/mL diazepam as an internal standard (IS) was added to 100 µL of plasma. The mixture was then vortexed for 10 min, followed by centrifugation at 10,000× g for 5 min at a temperature of 4 °C. The supernatant was collected, and 5 µL were injected into the LC-MS/MS for analysis.
(§4) The mobile phase consisted of 10 mM ammonium formate in 5% methanol (MeOH) (A) and ACN (B). […] The column temperature was maintained at 40 °C. MDZ and 1′-OH-MDZ were detected on a Sciex 3200 mass spectrometer with a turbo ion spray interphase operated in positive ion mode at 5500 V, a temperature of 5000 °C; GS1 and GS2 at 50 and 60 psi, respectively; and a curtain gas flow of 25 psi. […] The quantification of the MDZ and 1′-OH-MDZ was performed using the Analyst software (version 1.2; Applied Biosystems).
(§5) Standard non-compartmental pharmacokinetic (PK) analysis was performed with the WinNolin program, version 4.1 (Pharsight Corp, Mountain View, CA, USA), using the linear up logarithmic down trapezoidal method. The plasma parameters that were assessed and used for the comparison with the urinary biomarker were MDZ clearance (MDZ CL) and the area under the plasma concentration-time curve (AUC) from zero to infinity (AUC0–inf) of MDZ. More PK parameters were evaluated for MDZ and 1′-OH-MDZ.
(§6) The difference between log-transformed treatment/baseline was calculated pairwise for each subject, as well as for their 90% confidence intervals (CIs). These differences and CIs were anti-log-transformed back for reporting purposes. The same analysis was performed for MDZ clearance and AUC0-inf before and after treatment for comparison.
(§7) The pharmacokinetic (PK) parameters of MDZ were performed by standard noncompartmental
(§8) methods using the WinNolin program, version 4.1 (Pharsight Corp, Mountain View, CA, USA).
(§9) were plotted as graphs of midazolam or 1-OH-midazolam concentration vs. time.

[2] = test system: CYP3A; test: Oral MDZ (1.5 mg p.o.) plasma pharmacokinetics (MDZ and 1′-OH-MDZ) alone and after repeated inhibitor administration; details: for 1’-OH-MDZ AUC0– (zero to infinity), MDZ alone / 1’-OH-MDZ AUClast, MDZ alone / 1’-OH-MDZ Cmax, MDZ alone / 1’-OH-MDZ T1/2, MDZ alone / 1’-OH-MDZ Tmax, MDZ alone: MDZ 1.5 mg p.o., geometric mean (90% CI)
Experimental: as §1, §2, §3, §4, §5, §6, §7, §8, §9

[3] = test system: CYP3A
Experimental: as §1, §2
Sample preparations for the analysis of 1β-OH-DCA and ToDCA in human urine were performed using a previously described method but without acid solvolysis [15, 20]. In brief, an aliquot of 50 µL of a 0.1 M Tris HCL buffer (pH 5) containing a mixture of hydrolysis enzymes (100 U/mL choloylglycine hydrolase, 200 µL/mL β-glucuronidase/arylsulfatase, and 100 U/mL sulfatase) was added to 50 µL of urine, followed by adding 50 µL of an aqueous solution containing 1 µM of (D4)-DCA and (D4)-1β-OH-DCA as IS. The mixture was incubated overnight at 37 °C at a shaking speed of 500 rpm for enzymatic hydrolysis of glucuronides, sulfates, and amino acid conjugates. The reaction mixture was then quenched with a 300 µL ACN-MeOH (1:1, v/v) solution followed by centrifugation at 4000× g, 4 °C for 20 min. The supernatant was separated and diluted with an equal volume of water for ultra-high-performance liquid chromatography-high resolution mass spectrometry (UPLC-HRMS) analysis. […]
References containing 10 µM G-DCA, T-DCA, G-1β-OH-DCA, T-1β-OH-DCA, CDCA-24-G, and DCA-3-S were also prepared in stripped urine and subjected to enzymatic hydrolysis to monitor the efficiency of enzymatic deconjugation. […] Therefore, the concentrations of DCA-3-S were also determined in urine and combined with free DCA to represent the total concentration of DCA, i.e., ToDCA. […]

[4] = test system: CYP3A; details: human, in vivo, iv
Experimental: as §1, §2, §3, §4, §5, §6, §7, §8, §9

[5] = test system: CYP3A; details: human, in vivo
Experimental: as §1, §2, §3, §4, §5, §6, §7, §8, §9

[6] = test system: CYP3A; details: ITZ 200 mg od for 6 days; cited from earlier work
[7] = repeated administration (APZ 1 mg od)

OCc1ncc2n1-c1ccc(Cl)cc1C(c1ccccc1F)=NC2 [1’-OH-MDZ, 1′-hydroxymidazolam]
1’-OH-MDZ AUC0– (zero to infinity), MDZ alone ([1]; APZ arm (Table S1)): 4.49 (2.12–9.50) ng·h/mL | 1’-OH-MDZ AUClast, MDZ alone ([1]; APZ arm (Table S1)): 2.54 (1.49–4.35) ng·h/ml | 1’-OH-MDZ Cmax, MDZ alone ([1]; APZ arm (Table S1)): 1.24 (1.02–1.50) ng/mL | 1’-OH-MDZ AUC0– (zero to infinity), MDZ alone ([1]; FKZ arm (Table S2)): 3.31 (1.92 – 5.72) ng·h/ml | 1’-OH-MDZ AUClast, MDZ alone ([1]; FKZ arm (Table S2)): 2.56 (1.65 - 3.96) ng·h/ml | 1’-OH-MDZ Cmax, MDZ alone ([1]; FKZ arm (Table S2)): 1.09 (0.76 – 1.56) ng/ml | 1’-OH-MDZ T1/2, MDZ alone ([1]; FKZ arm (Table S2)): 2.30 (1.44 -3.65) h | 1’-OH-MDZ Tmax, MDZ alone ([1]; FKZ arm (Table S2)): 0.79 (0.69 – 0.90) h | 1’-OH-MDZ AUC0– (zero to infinity), MDZ alone ([1]; ITZ arm (Table S3)): 2.26 (1.5 – 3.41) ng·h/ml | 1’-OH-MDZ AUClast, MDZ alone ([1]; ITZ arm (Table S3)): 2.00 (1.41 – 3.01) ng·h/ml | 1’-OH-MDZ Cmax, MDZ alone ([1]; ITZ arm (Table S3)): 1.09 (0.87 – 1.35) ng/ml | 1’-OH-MDZ T1/2, MDZ alone ([1]; ITZ arm (Table S3)): 1.25 (0.8 – 1.95) h | 1’-OH-MDZ Tmax, MDZ alone ([1]; ITZ arm (Table S3)): 0.79 (0.69 -0.90) h | 1’-OH-MDZ AUC0– (zero to infinity), MDZ alone ([2]; APZ arm (Table S1)): 10.56 (6.77–16.48) ng·h/mL | 1’-OH-MDZ AUClast, MDZ alone ([2]; APZ arm (Table S1)): 8.23 (6.15–11.02) ng·h/mL | 1’-OH-MDZ Cmax, MDZ alone ([2]; APZ arm (Table S1)): 2.60 (2.13–3.18) ng/mL | 1’-OH-MDZ T1/2, MDZ alone ([2]; APZ arm (Table S1)): 2.54 (1.26–5.09) h | 1’-OH-MDZ Tmax, MDZ alone ([2]; APZ arm (Table S1)): 0.77 (0.65–0.91) h | 1’-OH-MDZ AUC0– (zero to infinity), MDZ alone ([2]; FKZ arm (Table S2)): 6.73 (3.77 – 12.01) ng·h/ml | 1’-OH-MDZ AUClast, MDZ alone ([2]; FKZ arm (Table S2)): 6.56 (3.6 – 11.94) ng·h/ml | 1’-OH-MDZ Cmax, MDZ alone ([2]; FKZ arm (Table S2)): 2.81 (1.61 – 4.92) ng/ml | 1’-OH-MDZ T1/2, MDZ alone ([2]; FKZ arm (Table S2)): 1.99 (1.32 – 3.0) h | 1’-OH-MDZ Tmax, MDZ alone ([2]; FKZ arm (Table S2)): 0.83 (0.56 – 1.21) h | 1’-OH-MDZ AUC0– (zero to infinity), MDZ alone ([2]; ITZ arm (Table S3)): 4.57 (3.04 – 6.88) ng·h/ml | 1’-OH-MDZ AUClast, MDZ alone ([2]; ITZ arm (Table S3)): 4.22 (2.8 -6.36) ng·h/ml | 1’-OH-MDZ Cmax, MDZ alone ([2]; ITZ arm (Table S3)): 2.29 (1.64 – 3.19) ng/ml | 1’-OH-MDZ T1/2, MDZ alone ([2]; ITZ arm (Table S3)): 1.34 (1.05 -1.7) h | 1’-OH-MDZ Tmax, MDZ alone ([2]; ITZ arm (Table S3)): 0.71 (0.63 – 0.80) h

Cc1nnc2n1-c1ccc(Cl)cc1C(c1ccccc1)=NC2 [APZ, alprazolam]
effect on MDZ PK parameters (in words) [2, 7]: no significant effect | effect on 1β-OH-DCA/ToDCA UMR (in words) [3, 7]: No inhibition; also recorded: no significant effect

OC(Cn1cncn1)(Cn1cncn1)c1ccc(F)cc1F [FKZ, fluconazole]
1’-OH-MDZ T1/2, MDZ + inhibitor [4]: 2.25 (1.56 – 3.23) h | 1’-OH-MDZ Tmax, MDZ + inhibitor [4]: 0.70 (0.59 – 0.83) h | 1’-OH-MDZ T1/2, MDZ + inhibitor ([5]; po): 1.71 (1 – 2.89) h | 1’-OH-MDZ Tmax, MDZ + inhibitor ([5]; po): 0.83 (0.68 – 1) h

CCC(C)n1ncn(-c2ccc(N3CCN(c4ccc(OCC5COC(Cn6cncn6)(c6ccc(Cl)cc6Cl)O5)cc4)CC3)cc2)c1=O (stereo not shown) [ITZ, itraconazole]
i.v. MDZ CL, Treatment/Baseline (90%CI) [4]: 0.44 * (0.26–0.73) | Oral MDZ CL, Treatment/Baseline (90%CI) [5]: 0.30 ** (0.18–0.47) | decrease of oral MDZ CL from baseline [5]: 70% | time after completion of treatment at which 1β-OH-DCA/ToDCA ratio was fully restored to baseline ([3]; after ITZ 100 mg od for 6 days): nine | fold increase in oral MDZ AUC [6]: 6.6 fold | reduced oral MDZ clearance [6]: 85%
